Data reported in patent US20130210664A1, “Methods for the Identification of Methyltransferase Interacting Molecules and for the Purification of Methyltransferase Proteins” (Cellzome AG, priority 2010, published 2013).

Key:
Test in all cases: Competition binding bead assay with immobilized compound 6 in cell lysate, iTRAQ LC-MS/MS quantitation
SETD7 = biological target: T1, SETD7 (Homo sapiens, UniProt Q8WTS6); details: SETD7 (IPI00028366.2); 200 μM free compound 6; mixed Jurkat and Ramos cell lysates; versus DMSO solvent control
T1 construct: endogenous in cells; host or cells: Jurkat (ATCC TIB-152) and Ramos (ATCC CRL-1596) cells, mixed lysate
T1 sequence (Q8WTS6 1-366): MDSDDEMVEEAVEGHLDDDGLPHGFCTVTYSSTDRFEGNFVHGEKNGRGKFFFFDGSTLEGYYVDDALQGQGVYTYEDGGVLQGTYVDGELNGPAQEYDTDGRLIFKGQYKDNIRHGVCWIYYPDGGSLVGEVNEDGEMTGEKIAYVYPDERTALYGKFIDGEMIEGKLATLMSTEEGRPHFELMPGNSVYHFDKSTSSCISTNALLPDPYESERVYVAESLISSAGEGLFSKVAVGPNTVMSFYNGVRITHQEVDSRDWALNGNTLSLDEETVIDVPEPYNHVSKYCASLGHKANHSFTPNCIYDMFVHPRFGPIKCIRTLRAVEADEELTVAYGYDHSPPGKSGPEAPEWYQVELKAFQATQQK
Protocol: (§1) To the first aliquot of cell lysate 200 μM of the free compound 6 was added and allowed to bind to proteins in the lysate. Then the affinity matrix with the immobilized compound (Example 1) was added to capture proteins that were not interacting with the previously added free compound. Beads were separated from the lysate and bead bound proteins were eluted in SDS sample buffer and subsequently separated by SDS-Polyacrylamide gel electrophoresis. Suitable gel bands were cut out and subjected to in-gel proteolytic digestion with trypsin. The second lysate aliquot was processed identically, however no free compound was added (DMSO solvent control). Peptides originating from samples 1 and 2 were labeled with iTRAQ reagents (iTRAQ 114 and iTRAQ 116) and the combined samples were analyzed with a nano-flow liquid chromatography system coupled online to a tandem mass spectrometer (LC-MS/MS) experiment followed by iTRAQ reporter ion quantification in the MS/MS spectra (Ross et al., 2004. Mol. Cell. Proteomics 3(12):1154-1169). Further experimental protocols can be found in WO2006/134056 and a previous publication (Bantscheff et al., 2007. Nature Biotechnology 25, 1035-1044).
(§2) The identified methyltransferases are shown in Table 5 including the percent competition values for the sample to which 200 μM free compound had been added. […]

SMYD5 = biological target: T2, SMYD5 (Homo sapiens, UniProt Q6GMV2); details: SMYD5 (IPI00013789.5); 200 μM free compound 6; mixed Jurkat and Ramos cell lysates; versus DMSO solvent control
T2 construct: endogenous in cells; host or cells: Jurkat (ATCC TIB-152) and Ramos (ATCC CRL-1596) cells, mixed lysate
T2 sequence (Q6GMV2 1-418): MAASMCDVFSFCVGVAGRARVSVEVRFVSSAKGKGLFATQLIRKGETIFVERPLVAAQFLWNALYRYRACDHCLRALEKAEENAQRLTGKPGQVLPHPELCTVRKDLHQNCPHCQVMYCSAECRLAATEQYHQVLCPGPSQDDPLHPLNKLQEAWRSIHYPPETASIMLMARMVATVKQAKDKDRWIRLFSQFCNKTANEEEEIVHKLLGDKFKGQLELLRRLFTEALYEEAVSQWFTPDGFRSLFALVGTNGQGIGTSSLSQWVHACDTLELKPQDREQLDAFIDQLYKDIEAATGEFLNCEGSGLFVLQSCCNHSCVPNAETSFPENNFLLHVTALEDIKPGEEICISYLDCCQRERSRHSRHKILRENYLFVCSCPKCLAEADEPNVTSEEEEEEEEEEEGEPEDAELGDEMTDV
Protocol: as §1, §2

DPH5 = system: DPH5; design: species or system human; details: 200 μM free compound 6, mixed Jurkat and Ramos cell lysates, versus DMSO solvent control
Protocol: as §1, §2

% Competition (SETD7): 94.1% | % Competition (SMYD5): 95.9%
SMILES: NCCCNc1nc(N)c2ncn([C@@H]3O[C@H](CSCC[C@H](N)C(=O)O)[C@@H](O)[C@H]3O)c2n1 [Compound 6, (S)-2-amino-4-((((2S,3S,4R,5R)-5-(6-amino-2-((3-aminopropyl)amino)-9H-purin-9-yl)-3,4-dihydroxytetrahydrofuran-2-yl)methyl)thio)butanoic acid]
% Competition (DPH5): 50.0%
